Source: PubChem BioAssay AID262 (DTP/NCI, 2004)
“And” between values parts separate entries of the source, which are not always exact repeats. Equal entries are not always repeated.

Tested on: LX-1 lung xenograft sc, nude mice, tumor weight
Test: NCI In Vivo Anticancer Drug Screen. Data for tumor model Human Lung LX-1 Xenograft (subcutaneous) in NU/NU Swiss (nude) mice
Settings: endpoint: optimum tumor weight change, schedule: Q04DX003 (ip), higher = larger tumour
Procedure: The antitumor activity of compounds was measured in mice bearing transplantable tumors. Survival or tumor size were measured and the results are expressed as the measurement made in the treated group (T) divided by the measurement made in the vehicle treated control group (C). The tumor model used in this assay is Human Lung LX-1 Xenograft (subcutaneous) in NU/NU Swiss (nude) mice

[1] = dose: 5.0 mg/kg/injection, vehicle: Klucel (hydroxypropylcellulose) (HPC)
[2] = dose: 10.0 mg/kg/injection, vehicle: Klucel (hydroxypropylcellulose) (HPC)
[3] = dose: 200.0 mg/kg/injection, vehicle: saline
[4] = dose: 200.0 mg/kg/injection, vehicle: suspension in saline
[5] = dose: 400.0 mg/kg/injection, vehicle: saline
[6] = dose: 400.0 mg/kg/injection, vehicle: suspension in saline
[7] = dose: 800.0 mg/kg/injection, vehicle: saline
[8] = dose: 800.0 mg/kg/injection, vehicle: suspension in saline
[9] = dose: 1600.0 mg/kg/injection, vehicle: saline
[10] = dose: 50.0 mg/kg/injection, vehicle: Klucel (hydroxypropylcellulose) (HPC)
[11] = dose: 100.0 mg/kg/injection, vehicle: saline with Tween-80
[12] = dose: 20.0 mg/kg/injection, vehicle: Klucel (hydroxypropylcellulose) (HPC)
[13] = dose: 100.0 mg/kg/injection, vehicle: Klucel (hydroxypropylcellulose) (HPC)
[14] = dose: 6.25 mg/kg/injection, vehicle: Klucel (hydroxypropylcellulose) (HPC)
[15] = dose: 12.5 mg/kg/injection, vehicle: Klucel (hydroxypropylcellulose) (HPC)
[16] = dose: 25.0 mg/kg/injection, vehicle: Klucel (hydroxypropylcellulose) (HPC)
[17] = dose: 100.0 mg/kg/injection, vehicle: saline
[18] = dose: 50.0 mg/kg/injection, vehicle: saline
[19] = dose: 30.0 mg/kg/injection, vehicle: saline

N[C@@H](Cc1ccc(N(CCCl)CCCl)cc1)C(=O)O
T/C (dose: 4.0 mg/kg/injection, vehicle: suspension in saline): 81 % of control and 87 % of control | T/C (dose: 8.0 mg/kg/injection, vehicle: suspension in saline): 56 % of control

Cn1cnc([N+](=O)[O-])c1[Se]c1nc(N)nc2nc[nH]c12
T/C (dose: 25.0 mg/kg/injection, vehicle: water): 77 % of control | T/C (dose: 50.0 mg/kg/injection, vehicle: water): 54 % of control | T/C (dose: 100.0 mg/kg/injection, vehicle: water): 49 % of control

CC1CCC(NC(=O)N(CCCl)N=O)CC1 (stereo unspecified)
T/C [1]: 73 % of control | T/C [2]: 32 % of control

CNC=O
T/C [3]: 64 % of control and 82 % of control and 86 % of control | T/C [4]: 56 % of control and 67 % of control | T/C [5]: 38 % of control and 41 % of control and 49 % of control | T/C [6]: 37 % of control and 57 % of control | T/C [7]: 12 % of control and 23 % of control | T/C [8]: 25 % of control and 30 % of control

O=C(O)CP(=O)(O)O
T/C [5]: 98 % of control | T/C [7]: 90 % of control | T/C [9]: 75 % of control

CN(C)N=Nc1cn[nH]c1C(N)=O
T/C [10]: 2 % of control | T/C (dose: 200.0 mg/kg/injection, vehicle: Klucel (hydroxypropylcellulose) (HPC)): 53 % of control | T/C (dose: 400.0 mg/kg/injection, vehicle: Klucel (hydroxypropylcellulose) (HPC)): -43 % of control

NC(=O)c1ccc[n+](Cc2c(Cl)cccc2Cl)c1
T/C (dose: 24.0 mg/kg/injection, vehicle: saline): 47 % of control | T/C (dose: 48.0 mg/kg/injection, vehicle: saline): 68 % of control

CO[C@H]1C[C@](C)(O)Cc2cc3c(c(O)c21)C(=O)c1c(O)cc2c(c1C3=O)O[C@@H]1O[C@@]2(C)[C@H](O)[C@@H](N(C)C)[C@@H]1O
T/C (dose: 6.25 mg/kg/injection, vehicle: other): 53 % of control | T/C (dose: 12.5 mg/kg/injection, vehicle: other): 114 % of control

COc1ccc(C(N)=O)cc1N=NN(C)C
T/C (dose: 18.75 mg/kg/injection, vehicle: Klucel (hydroxypropylcellulose) (HPC)): 60 % of control

O=c1[nH]c2c(ccc3cnccc32)c2c1CCC2
T/C (dose: 12.5 mg/kg/injection, vehicle: suspension in saline): 35 % of control | T/C (dose: 25.0 mg/kg/injection, vehicle: suspension in saline): 70 % of control | T/C (dose: 50.0 mg/kg/injection, vehicle: suspension in saline): 61 % of control

Nc1ccc(Cl)cc1N
T/C [11]: 101 % of control

CC(=O)OCC1OC(n2ccc(N)nc2=O)C(OC(C)=O)C1OC(C)=O (stereo unspecified)
T/C [4]: 102 % of control | T/C [6]: 78 % of control

O=NN(CCCl)C(=O)NC1CCCCC1
T/C [2]: 44 % of control | T/C [12]: 32 % of control

CS(=O)(=O)OCCN(CCOS(C)(=O)=O)c1ccc(C=Nc2ccc(-c3csc(COc4ccccc4)n3)cc2)cc1
T/C [13]: 82 % of control

Nc1nc(N)c2cc(CNc3ccc(C(=O)NC(CC(=O)O)CC(=O)O)cc3)ccc2n1
T/C [14]: 66 % of control | T/C [15]: 71 % of control | T/C [16]: 78 % of control

CN(C)N=Nc1cccc(C(N)=O)c1
T/C [15]: 98 % of control | T/C [16]: 36 % of control

O=NN(CCCl)C(=O)NC1CCC(=O)NC1=O (stereo unspecified)
T/C (dose: 5.0 mg/kg/injection, vehicle: saline with Tween-80): 49 % of control

O=[N+]([O-])/C=C\c1ccc2c(c1)OCO2
T/C [15]: 89 % of control | T/C [16]: 63 % of control and 88 % of control | T/C [10]: 64 % of control and 73 % of control | T/C [13]: 103 % of control

COC(OC(CO)C(O)S(=O)(=O)O)C(O)S(=O)(=O)O (stereo unspecified)
T/C [3]: 45 % of control | T/C [4]: 89 % of control | T/C [6]: 82 % of control | T/C [8]: 41 % of control

CC(C)CCCCCCCCCCCCC(=O)NCC(=O)NC1C(C)OC(Nc2ncnc3nc[nH]c23)C(O)C1O (stereo unspecified)
T/C (dose: 6.25 mg/kg/injection, vehicle: saline with Tween-80): 34 % of control

N=c1nc2n(cc1F)[C@@H]1O[C@H](CO)[C@@H](O)[C@@H]1O2
T/C [17]: 67 % of control | T/C [3]: 59 % of control | T/C [5]: 78 % of control | T/C [7]: 72 % of control

Nc1cc2[nH]cnc2c(=O)[nH]1
T/C [18]: 96 % of control | T/C [17]: 123 % of control | T/C [3]: 112 % of control

NC(Cc1ccc(N(CCCl)CCCl)cc1)C(=O)O (stereo unspecified)
T/C [1]: 66 % of control

C=CC(=O)N1CN(C(=O)C=C)CN(C(=O)C=C)C1
T/C (dose: 1.5 mg/kg/injection, vehicle: saline with Tween-80): 89 % of control | T/C (dose: 3.0 mg/kg/injection, vehicle: saline with Tween-80): 62 % of control | T/C (dose: 6.0 mg/kg/injection, vehicle: saline with Tween-80): 80 % of control

CC(C)=CCNc1ncnc2c1ncn2C1OC(CO)C(O)C1O (stereo unspecified)
T/C [4]: 150 % of control

CCN(CC)CCCC(C)Nc1c2ccc(Cl)cc2nc2ccc(OC)cc12 (stereo unspecified)
T/C (dose: 25.0 mg/kg/injection, vehicle: saline with Tween-80): 119 % of control | T/C (dose: 50.0 mg/kg/injection, vehicle: saline with Tween-80): 99 % of control | T/C [11]: 108 % of control

Cc1c(N)nc(C(CC(N)=O)NCC(N)C(N)=O)nc1C(=O)NC(C(=O)NC(C)C(O)C(C)C(=O)NC(C(=O)NCCc1nc(-c2nc(C(=O)NCCCNC(C)c3ccccc3)cs2)cs1)C(C)O)C(OC1OC(CO)C(O)C(O)C1OC1OC(CO)C(O)C(OC(N)=O)C1O)c1cnc[nH]1 (stereo unspecified)
T/C (dose: 15.0 mg/kg/injection, vehicle: saline): 35 % of control | T/C [19]: 35 % of control

N=C(N)Sc1ccccn1
T/C [18]: 182 % of control

Cc1c(N)nc([C@H](CC(N)=O)NC[C@H](N)C(N)=O)nc1C(=O)N[C@H](C(=O)N[C@H](C)[C@@H](O)[C@H](C)C(=O)N[C@H](C(=O)NCCc1nc(-c2nc(C(=O)NCCC[S+](C)C)cs2)cs1)[C@@H](C)O)C(OC1OC(CO)C(O)C(O)C1OC1OC(CO)C(O)C(OC(N)=O)C1O)c1cnc[nH]1 (stereo partly specified)
T/C (dose: 3.75 mg/kg/injection, vehicle: saline): 45 % of control | T/C (dose: 4.0 mg/kg/injection, vehicle: saline): 70 % of control | T/C (dose: 16.0 mg/kg/injection, vehicle: saline): 49 % of control and 56 % of control and 63 % of control | T/C [19]: 33 % of control and 55 % of control | T/C (dose: 60.0 mg/kg/injection, vehicle: saline): 8 % of control and 21 % of control

N=c1ccn2c(n1)OC1C(O)C(CO)OC12 (stereo unspecified)
T/C [3]: 66 % of control | T/C [5]: 83 % of control | T/C [6]: 45 % of control and 61 % of control | T/C [7]: 41 % of control | T/C [8]: 17 % of control | T/C [9]: 18 % of control | T/C (dose: 1600.0 mg/kg/injection, vehicle: suspension in saline): 27 % of control

N/C(=N\O)c1cn(C2OC(CO)C(O)C2O)c2ncnc(N)c12 (stereo unspecified)
T/C [1]: 70 % of control | T/C [2]: 68 % of control | T/C [12]: 62 % of control

O=C(NO)c1ccccc1
T/C (dose: 100.0 mg/kg/injection, vehicle: suspension in saline): 95 % of control | T/C [4]: 68 % of control and 84 % of control | T/C [6]: 55 % of control and 80 % of control | T/C [8]: 85 % of control

CCCC(=O)OCc1cc(=O)n(C)c2c3c4c(cc12)c(C)cc(=O)n4CO3
T/C [10]: 116 % of control

O=S(CCCl)CCCl
T/C [10]: 61 % of control

[N-]=[N+]=CC(=O)CCC(N)C(=O)O (stereo unspecified)
T/C (dose: 37.5 mg/kg/injection, vehicle: saline): -87 % of control

CCC[CH2][Sn]1([CH2]CCC)[O]C2C(CO)OC(n3ccc(N)nc3=O)C2[O]1 (stereo unspecified)
T/C (dose: 3.13 mg/kg/injection, vehicle: Klucel (hydroxypropylcellulose) (HPC)): 107 % of control and 108 % of control | T/C [14]: 197 % of control | T/C [15]: 77 % of control
